Literature values in patent US20200170998A1, “UMBILICAL CORD BLOOD SERUM AND UMBILICAL CORD BLOOD PLASMA PREPARATION IN COMBINATION WITH A NONSTEROIDAL ANTI-INFLAMMATORY DRUG AND FREEZE-DRYING THE COMPOSITION” (CELLULA LLC, priority 2018, published 2020).

Tested on: corneal epithelial cells
Conditions: in-vitro; control a balanced salt solution

Structure (SMILES) | toxicity on corneal epithelial cells
CC(=O)[C@@]1(O)CC[C@H]2[C@@H]3C[C@H](C)C4=CC(=O)C=C[C@]4(C)[C@@]3(F)[C@@H](O)C[C@@]21C [Flourometholone] | most severe toxicity
CC(C(=O)O)c1ccc2c(c1)Cc1cccnc1O2 (stereo not shown) [pranoprofen] | less cellular damage and showed no difference with the control
Nc1c(CC(=O)O)cccc1C(=O)c1ccc(Br)cc1 [bromfenac] | less cellular damage and showed no difference with the control
O=C(O)Cc1ccccc1Nc1c(Cl)cccc1Cl [Diclofenac] | significant cellular toxicity
